Experimental data taken from patent publication US9580426B2, “Compounds that expand hematopoietic stem cells” (Novartis AG, priority 2008, dated 2017).
pEC50: −log10 of the molar value.

System: Primary adult CD34+ human hematopoietic stem cells (HSCs)
Assay: % CD34+ assay: HSC expansion screen, dose response
Assay type: cell-based
Settings: Homo sapiens, Hematopoietic stem cell; dose response 1 nM to 10 μM; total number and/or percent of CD34+ cells
Protocol: Primary adult CD34^+ human hematopoietic stem cells (HSCs) are cultured and screened to identify compounds of the invention that facilitate HSC expansion. The cells are analyzed for the presence of the desired phenotype (CD34 expression). Compounds of the invention promote HSC expansion in a dose dependent manner.
Culture Medium: StemSpan SFEM medium is serum-free medium (StemCell Technologies, Vancouver, BC) supplemented with the following human recombinant cytokines: thrombopoietin, interleukin-6, Flt-3 ligand, and stem cell factor (all from R&D Systems, Minneapolis, Minn.), each at a final concentration of 50 ng/mL, with vehicle (DMSO) or a compound of the invention.
Human Cell Culture: Fresh human leukophoresed G-CSF mobilized peripheral blood from normal donors, CD34^+ cells from adult bone marrow and cryopreserved human cord blood CD34^+ cells are purchased from AllCells (Berkeley, Calif.). Human CD34^+ cells are enriched from leukophoresed G-CSF mobilized peripheral blood using magnetic cell sorting (MACS, Direct CD34 Progenitor Cell Isolation Kit, Miltenyi Biotec, Bergisch Gladbach, Germany) and cryopreserved. CD34^+ cell purity, checked by flow Cytometry, is higher than 90%. After thawing, the cell viability tested by trypan blue exclusion is higher than 70%. The thawed cells are centrifuged and resuspended with StemSpan medium before being aliquoted for immediate culture. Cells are plated at 10^4 cells/mL in a 384 well plate (Greiner Bio-One, Monroe, N.C.) with 50 μL of medium per well for 7 days. Every 7 days the cells are transferred to larger well plates and fresh medium is added to keep the cell density between 10^4 and 5×10^5 cells/mL. Cells were cultured at 37° C. in 5% CO2. For transplantation, cells were cultured in 75 cm^2 flasks before the cells were transplanted into mice. At a concentration of 1 micromolar, 4-(2-(2-(benzo[b]thiophen-3-yl)-9-isopropyl-9H-purin-6-ylamino)ethyl)phenol (compound 1, table 1; example 1), 4-(2-(2-(benzo[b]thiophen-3-yl)-9-sec-butyl-9H-purin-6-ylamino)ethyl)phenol (compound 2, table 1), and N-(2-(1H-indol-3-yl)ethyl)-2-(benzo[b]thiophen-3-yl)-9-isopropyl-9H-purin-6-amine (compound 9, table 1) each gives rise to a greater than 10-fold increase in the number of CD34^+ CD45RA^− cells derived from 1000 mPB CD34^+ HSCs after 21 days compared to vehicle. Compounds of the invention were assayed in a dose response format (1 nM to 10 μM) to determine the effective concentration that produced the desired effect in 50% of the cells (EC50).

| Compound | pEC50 |
| --- | --- |
| CC(C)n1cnc2c(NCCc3ccc(O)cc3)nc(-c3cncs3)nc21 [Example 120] | 5.85 |
| COc1cc(CCNc2nc(-c3cccnc3)nc3c2ncn3C(C)C)ccc1O [Example 60] | 5.49 |
| Oc1ccc(CCNc2nc(-c3cccnc3)nc3c2ncn3C2COC2)cc1 [Example 94] | 6.01 |
| CC(C)n1cnc2c(NCCc3c[nH]c4ccccc34)nc(-c3csc4ccccc34)nc21 [Example 9, N-(2-(1H-indol-3-yl)ethyl)-2-(benzo[b]thiophen-3-yl)-9-isopropyl-9H-purin-6-amine] | 7.70 |
| CC(C)n1cnc2c(NCCc3ccc(O)cc3)nc(-c3cncnc3)nc21 [Example 14] | 6.77 |
| CC[C@H](C)n1cnc2c(NCCc3c[nH]c4ccccc34)nc(-c3cncc(C)c3)nc21 [Example 131S] | 8.52 |
| CC(C)n1cnc2c(NCCNc3ccccn3)nc(-c3csc4ccccc34)nc21 [Example 83] | 5.15 |
| CC(C)n1cnc2c(NCCc3ccc(OS(N)(=O)=O)cc3)nc(-c3cccnc3)nc21 [Example 114] | 5.96 |
| CC(C)n1cnc2c(NCCc3ccc(O)cc3)nc(-c3ccc(F)nc3)nc21 [Example 34] | 6.80 |
| CCC(C)n1cnc2c(NCCc3c[nH]c4ccccc34)nc(-c3cncc(C#N)c3)nc21 (stereo not drawn) [Example 130] | 9.00 |
| CC(C)n1cnc2c(NCc3ccc4[nH]c(=O)[nH]c4c3)nc(-c3csc4ccccc34)nc21 [Example 90] | 5.48 |
| Cc1nccn1-c1nc(NCCc2ccc(O)cc2)c2ncn(C(C)C)c2n1 [Example 123, 4-(2-(9-Isopropyl-2-(2-methyl-1H-imidazol-1-yl)-9H-purin-6-ylamino)ethyl)phenol] | 7.18 |
| CC(C)n1cnc2c(NCCc3ccc(O)cc3)nc(-n3cnc4ccccc43)nc21 [Example 121] | 7.07 |
| CC(C)n1cnc2c(NCCc3ccc(NS(C)(=O)=O)cc3)nc(-c3cccnc3)nc21 [Example 92] | 5.15 |
| CC(C)n1cnc2c(NCCc3ccc(O)cc3)nc(-c3ccoc3)nc21 [Example 18] | 5.41 |
| Oc1ccc(CCNc2nc(-c3csc4ccccc34)nc3c2ncn3Cc2ccc(C(F)(F)F)cc2)cc1 [Example 5] | 5.68 |
| COc1cncc(-c2nc(NCCc3ccc(O)cc3)c3ncn(C(C)C)c3n2)c1 [Example 33] | 6.57 |
| CC(CO)n1cnc2c(NCCc3ccc(O)cc3)nc(-c3cccnc3)nc21 (stereo not drawn) [Example 113] | 6.27 |

| Compound | pEC50 |
| --- | --- |
| CC(C)n1cnc2c(NCCc3ccc(F)cc3)nc(-c3csc4ccccc34)nc21 [Example 12] | 5.75 |
| Cn1cnc2c(NCCc3ccc(O)cc3)nc(-c3csc4ccccc34)nc21 [Example 7] | 5.14 |
| COc1ccc2c(CCNc3nc(-c4cccnc4)nc4c3ncn4C(C)C)c[nH]c2c1 [Example 61] | 6.89 |
| CCC(C)n1cnc2c(NCCc3c[nH]c4ccccc34)nc(-c3csc4ccccc34)nc21 (stereo not drawn) [Example 23] | 7.72 |
| CC(C)n1cnc2c(NCCc3ccc(N)cc3)nc(-c3csc4ccccc34)nc21 [Example 13] | 5.24 |
| CC(C)n1cnc2c(NCCNC(N)=O)nc(-c3csc4ccccc34)nc21 [Example 89] | 5.85 |
| CCOC(=O)c1cncc(-c2nc(NCCc3ccc(O)cc3)c3ncn(C(C)C)c3n2)c1 [Example 32] | 5.25 |
| Cc1cc(CCNc2nc(-c3cccnc3)nc3c2ncn3C(C)C)n[nH]1 [Example 126] | 5.30 |
| CC(C)n1cnc2c(NCCc3ccc(O)cc3)nc(-c3cnccc3C#N)nc21 [Example 140] | 7.04 |
| Oc1ccc(CCNc2nc(-c3csc4ccccc34)nc3c2ncn3C2CCCOC2)cc1 (stereo not drawn) [Example 4] | 5.83 |
| CCCCCCCC(C)n1cnc2c(NCCc3ccc(O)cc3)nc(-c3csc4ccccc34)nc21 (stereo not drawn) [Example 21] | 6.89 |
| CC(C)n1cnc2c(NCCCc3cn[nH]c3)nc(-c3cccnc3)nc21 [Example 73] | 5.09 |
| CC(C)Cn1cnc2c(NCCc3ccc(O)cc3)nc(-c3csc4ccccc34)nc21 [Example 6] | 5.60 |
| CC(C)n1cnc2c(NCCc3ccc(O)cc3)nc(-c3cncc(F)c3)nc21 [Example 50] | 7.47 |
| CC(C)n1cnc2c(N(C)CCc3ccc(O)cc3)nc(-c3cccnc3)nc21 [Example 99] | 5.12 |
| Cc1ccc(Cn2cnc3c(NCCc4ccc(O)cc4)nc(-c4csc5ccccc45)nc32)cc1 [Example 8] | 5.22 |
| CC(C)n1cnc2c(NCCc3ccc(O)cc3)nc(-c3ccncc3)nc21 [Example 31] | 6.18 |

More lines, now with the values ahead:

| pEC50 | Compound |
| --- | --- |
| 8.52 | C[C@@H](CO)n1cnc2c(NCCc3c[nH]c4ccccc34)nc(-c3cncc(F)c3)nc21 [Example 157S, (S)-2-(6-(2-(1H-indol-3-yl)ethylamino)-2-(5-fluoropyridin-3-yl)-9H-purin-9-yl)propan-1-ol] |
| 8.15 | Fc1cncc(-c2nc(NCCc3c[nH]c4ccccc34)c3ncn(C4COC4)c3n2)c1 [Example 186] |
| 6.77 | CC(C)n1cnc2c(NCCc3ccc(O)cc3)nc(-c3cncc(F)c3)cc21 [Example 161, 4-(2-(6-(5-Fluoropyridin-3-yl)-1-isopropyl-1H-imidazo[4,5-c]pyridin-4-ylamino)ethyl)phenol] |
| 5.37 | CC(C)n1cnc2c(NCCc3ccc(O)cc3)nc(-c3cccnc3C#N)nc21 [Example 143] |
| 7.62 | Cc1cccc2c(CCNc3nc(-c4cncc(F)c4)nc4c3ncn4C(C)C)c[nH]c12 [Example 185] |
| 6.12 | CC(C)n1cnc2c(NCCc3c[nH]c4ccc(Cl)cc34)nc(-c3cccnc3)nc21 [Example 148] |
| 6.85 | CC(C)n1cnc2c(NCCc3ccc(O)cc3)cc(-c3cncc(F)c3)nc21 [Example 177, 4-(2-(5-(5-Fluoropyridin-3-yl)-3-isopropyl-3H-imidazo[4,5-b]pyridin-7-ylamino)ethyl)phenol] |
| 5.29 | CC(C)n1cnc2c(NCCc3c[nH]c4cc(O)ccc34)nc(-c3cncc(F)c3)nc21 [Example 182] |
| 7.92 | C=C(C)n1cnc2c(NCCc3c[nH]c4ccccc34)nc(-c3cncc(F)c3)nc21 [Example 173] |
| 5.72 | CC(C)n1cnc2c(NCCc3ccc(O)cc3)nc(-n3cnc4ncccc43)nc21 [Example 160] |
| 7.96 | Cc1cccc2[nH]cc(CCNc3nc(-c4cncc(F)c4)nc4c3ncn4C(C)C)c12 [Example 197] |
| 8.22 | CC(C)n1cnc2c(NCCc3c[nH]c4ccccc34)nc(-c3cncc(F)c3)nc21 [Example 170] |
| 7.24 | Cc1cc(CCNc2nc(-c3cccnc3)nc3c2ncn3C(C)C)ccc1O [Example 150] |
| 8.30 | CC(CO)n1cnc2c(NCCc3c[nH]c4ccccc34)nc(-c3cncc(F)c3)nc21 (stereo not drawn) [Example 157, 2-(6-(2-(1H-indol-3-yl)ethylamino)-2-(5-fluoropyridin-3-yl)-9H-purin-9-yl)propan-1-ol] |
| 8.30 | Cc1[nH]c2ccccc2c1CCNc1nc(-c2cncc(F)c2)nc2c1ncn2C(C)C [Example 190] |
| 7.47 | Cc1cncc(-c2nc(NCCc3c[nH]c4ccccc34)c3ncn(C4COC4)c3n2)c1 [Example 187] |
| 5.80 | CC(C)n1cnc2c(NCCc3cnc4[nH]ccc4c3)nc(-c3cccnc3)nc21 [Example 199] |
| 6.38 | CC(C)n1cnc2c(NCCc3c[nH]c4ncccc34)nc(-c3cncc(F)c3)nc21 [Example 175] |
| 6.80 | Cc1ccc(-c2nc(NCCc3ccc(O)cc3)c3ncn(C(C)C)c3n2)cn1 [Example 144] |
